Experimental data published in patent US20100292231A1, “Indazole Compounds for Treating Inflammatory Disorders, Demyelinating Disorders and Cancers” (priority 2007, published 2010).
Read-outs that look alike come from different tables or passages of the source.

Columns and labels:
Test in all cases: SelectScreen kinase specificity survey
Assay type in all cases: biochemical
ABL1 T315I = molecular target: T1, ABL1 T315I (Homo sapiens, UniProt P00519, T315I); conditions: estimated, abridged dose response curve, read-out: Kinase inhibitory activity EC50
T1 construct: purchased Invitrogen (SelectScreen platform)
Description: (§1) Testing of the compounds described in this invention was carried out using the SelectScreen™ platform from Invitrogen, Inc. (Carlsbad. Calif., USA) and the details of its performance are readily viewed via the web by linking to: http://www.invitrogen.com/downloads/SelectScrn_Brochure.pdf.
(§2) Briefly, the approach is based on treating each specific kinase with a unique substrate and optical reporter system in the presence of ATP at 100 micromolar. In controls, the substrate is phosphorylated and a baseline optimal response is recorded.
(§3) The compounds were then re-tested by adding graded amounts of putative inhibitor which were added in 5 separate increments to generate a dose response curve. The latter is obtained by fitting to a 4 parameter Hill equation, a sigmoid saturation equation.
(§4) The same assay system described in Example 2 can be applied in the determination of kinase specificity. It is well understood by medicinal chemists in the development of kinase inhibitors that the resulting molecules often lack specificity. Not only are homologous kinases inhibited by the same class of compounds, but also non-homologous kinases can be affected by allosteric, induced, activated vs inactivated conformation, and protein folding interactions with the putative inhibitor, which otherwise had been designed to be specific. These off target effects are difficult to predict and can only be ruled in or out by empirically surveying a large set of kinases. It is also understood that changes to scaffolds and variation in their chemical decorations may influence the extent of promiscuity in the patterns of kinase inhibition across kinase classes.
(§5) The following experiment was conducted to address this issue. The indazole compound (IV), described in Example 2 and representative of the new genus was tested along with Symadex against a panel of 230 kinases representative of all known kinases classes. Included in the survey were the Flt3, its mutant, and close relatives in the Class III receptor tyrosine kinase class, together with serine-threonine kinases and atypical kinases many of which share no homology of active site with Flt3 as shown, for example, in the respective “genecard” for each kinase and available for inspection at on the web at http://www.genecards.org/.
(§6) Table 3 lists the estimated EC50 values from an abridged dose response curve for Symadex (C-1311) and CF-123. The kinases are listed alphabetically by Group and Family.

CAMK1D (CaMKI delta) = molecular target: T2, CAMK1D (CaMKI delta) (Homo sapiens, UniProt Q8IU85); conditions: estimated, abridged dose response curve, read-out: Kinase inhibitory activity EC50
T2 construct: purchased Invitrogen, Inc. (SelectScreen platform)
Description: as §1, §2, §3, §4, §5, §6

CLK2 = molecular target: T3, CLK2 (Homo sapiens, UniProt P49760); conditions: estimated, abridged dose response curve, read-out: Kinase inhibitory activity EC50
T3 construct: purchased Invitrogen (SelectScreen platform)
T3 sequence (P49760 whole entry): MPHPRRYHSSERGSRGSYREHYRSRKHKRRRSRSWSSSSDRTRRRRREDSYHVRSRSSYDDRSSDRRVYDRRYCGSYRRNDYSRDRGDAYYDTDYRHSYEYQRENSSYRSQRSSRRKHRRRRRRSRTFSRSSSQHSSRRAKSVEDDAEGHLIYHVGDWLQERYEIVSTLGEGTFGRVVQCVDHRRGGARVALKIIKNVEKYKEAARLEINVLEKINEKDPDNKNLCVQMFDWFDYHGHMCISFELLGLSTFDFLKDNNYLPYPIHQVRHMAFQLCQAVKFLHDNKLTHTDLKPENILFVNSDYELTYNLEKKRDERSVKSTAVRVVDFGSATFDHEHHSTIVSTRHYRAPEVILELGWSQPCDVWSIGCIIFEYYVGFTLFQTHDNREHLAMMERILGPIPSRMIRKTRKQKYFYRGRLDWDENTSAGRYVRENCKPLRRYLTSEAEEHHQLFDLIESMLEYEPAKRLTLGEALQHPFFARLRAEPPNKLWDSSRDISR
Description: as §1, §2, §3, §4, §5, §6

CLK3 = molecular target: T4, CLK3 (Homo sapiens, UniProt P49761); conditions: estimated, abridged dose response curve, read-out: Kinase inhibitory activity EC50
T4 construct: purchased Invitrogen (SelectScreen platform)
T4 sequence (P49761 whole entry): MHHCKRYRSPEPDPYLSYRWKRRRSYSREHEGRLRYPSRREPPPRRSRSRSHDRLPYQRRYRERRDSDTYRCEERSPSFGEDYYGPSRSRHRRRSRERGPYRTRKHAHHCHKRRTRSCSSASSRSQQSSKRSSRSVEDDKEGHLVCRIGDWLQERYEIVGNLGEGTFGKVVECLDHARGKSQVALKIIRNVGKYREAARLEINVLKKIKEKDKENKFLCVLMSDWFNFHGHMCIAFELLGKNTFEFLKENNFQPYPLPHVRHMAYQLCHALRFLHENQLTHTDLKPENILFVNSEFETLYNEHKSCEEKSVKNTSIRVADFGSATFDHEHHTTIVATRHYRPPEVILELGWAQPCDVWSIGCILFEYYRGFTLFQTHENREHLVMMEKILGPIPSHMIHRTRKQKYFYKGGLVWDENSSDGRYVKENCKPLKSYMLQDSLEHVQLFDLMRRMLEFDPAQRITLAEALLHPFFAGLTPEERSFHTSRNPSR
Description: as §1, §2, §3, §4, §5, §6

CSNK2A1 (CK2 alpha 1) = molecular target: T5, CSNK2A1 (CK2 alpha 1) (Homo sapiens, UniProt P68400); conditions: estimated, abridged dose response curve, read-out: Kinase inhibitory activity EC50
T5 construct: purchased Invitrogen, Inc. (SelectScreen service)
T5 sequence (P68400 whole entry): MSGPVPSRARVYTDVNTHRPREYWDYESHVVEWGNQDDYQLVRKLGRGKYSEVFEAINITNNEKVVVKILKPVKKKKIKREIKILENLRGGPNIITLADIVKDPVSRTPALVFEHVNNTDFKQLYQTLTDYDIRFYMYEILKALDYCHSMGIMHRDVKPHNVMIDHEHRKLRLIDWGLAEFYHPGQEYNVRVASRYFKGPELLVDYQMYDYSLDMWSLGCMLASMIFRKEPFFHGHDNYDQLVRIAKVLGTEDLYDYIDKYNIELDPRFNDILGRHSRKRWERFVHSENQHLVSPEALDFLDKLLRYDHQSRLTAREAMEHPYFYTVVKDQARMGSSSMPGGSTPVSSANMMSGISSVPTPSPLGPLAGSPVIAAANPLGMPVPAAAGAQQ
Description: as §1, §2, §3, §4, §5, §6

EPHB1 = molecular target: T6, EPHB1 (Homo sapiens, UniProt P54762)
T6 construct: purchased Invitrogen (SelectScreen service)
Description: as §1, §2, §3, §4, §5, §6

FER = molecular target: T7, FER (Homo sapiens, UniProt P16591); conditions: estimated, abridged dose response curve, read-out: Kinase inhibitory activity EC50
T7 construct: purchased Invitrogen (SelectScreen service)
Description: as §1, §2, §3, §4, §5, §6

FGFR3 = molecular target: T8, FGFR3 (Homo sapiens, UniProt P22607); conditions: estimated, abridged dose response curve, read-out: Kinase inhibitory activity EC50
T8 construct: purchased Invitrogen (SelectScreen platform)
T8 sequence (P22607 23-806): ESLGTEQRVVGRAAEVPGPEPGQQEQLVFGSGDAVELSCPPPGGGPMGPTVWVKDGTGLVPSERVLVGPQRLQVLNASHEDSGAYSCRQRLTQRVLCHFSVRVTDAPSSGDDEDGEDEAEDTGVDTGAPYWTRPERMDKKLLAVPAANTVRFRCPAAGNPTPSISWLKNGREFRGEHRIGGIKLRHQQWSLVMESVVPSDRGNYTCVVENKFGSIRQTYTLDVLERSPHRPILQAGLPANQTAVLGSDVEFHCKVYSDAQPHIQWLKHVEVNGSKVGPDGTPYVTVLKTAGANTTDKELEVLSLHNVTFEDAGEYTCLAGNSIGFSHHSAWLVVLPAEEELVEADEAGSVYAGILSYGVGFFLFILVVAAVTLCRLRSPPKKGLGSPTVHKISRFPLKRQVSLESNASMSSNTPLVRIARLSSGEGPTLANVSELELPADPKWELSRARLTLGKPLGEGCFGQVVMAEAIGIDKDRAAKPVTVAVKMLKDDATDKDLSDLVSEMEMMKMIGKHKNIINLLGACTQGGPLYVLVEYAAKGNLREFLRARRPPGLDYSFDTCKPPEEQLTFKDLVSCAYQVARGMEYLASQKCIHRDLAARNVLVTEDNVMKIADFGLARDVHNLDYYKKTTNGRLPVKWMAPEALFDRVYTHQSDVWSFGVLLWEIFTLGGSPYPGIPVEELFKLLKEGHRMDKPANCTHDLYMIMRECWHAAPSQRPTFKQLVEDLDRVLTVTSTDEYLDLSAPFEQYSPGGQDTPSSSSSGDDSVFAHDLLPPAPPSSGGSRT
Description: as §1, §2, §3, §4, §5, §6

LCK = molecular target: T9, LCK (Homo sapiens, UniProt P06239); conditions: estimated, abridged dose response curve, read-out: Kinase inhibitory activity EC50
T9 construct: purchased Invitrogen (SelectScreen)
Description: as §1, §2, §3, §4, §5, §6

MINK1 (ZC3) = molecular target: T10, MINK1 (ZC3) (Homo sapiens, UniProt Q8N4C8); conditions: estimated, abridged dose response curve, read-out: Kinase inhibitory activity EC50
T10 construct: purchased Invitrogen (SelectScreen platform)
Description: as §1, §2, §3, §4, §5, §6

NTRK3 (TRKC) = molecular target: T11, NTRK3 (TRKC) (Homo sapiens, UniProt Q16288)
T11 construct: purchased Invitrogen, Inc. (SelectScreen platform)
Description: as §1, §2, §3, §4, §5, §6

PAK7 (KIAA1264, PAK5) = molecular target: T12, PAK7 (KIAA1264, PAK5) (Homo sapiens, UniProt Q9P286); conditions: estimated, abridged dose response curve, read-out: Kinase inhibitory activity EC50
T12 construct: purchased Invitrogen (SelectScreen platform)
T12 sequence (Q9P286 whole entry): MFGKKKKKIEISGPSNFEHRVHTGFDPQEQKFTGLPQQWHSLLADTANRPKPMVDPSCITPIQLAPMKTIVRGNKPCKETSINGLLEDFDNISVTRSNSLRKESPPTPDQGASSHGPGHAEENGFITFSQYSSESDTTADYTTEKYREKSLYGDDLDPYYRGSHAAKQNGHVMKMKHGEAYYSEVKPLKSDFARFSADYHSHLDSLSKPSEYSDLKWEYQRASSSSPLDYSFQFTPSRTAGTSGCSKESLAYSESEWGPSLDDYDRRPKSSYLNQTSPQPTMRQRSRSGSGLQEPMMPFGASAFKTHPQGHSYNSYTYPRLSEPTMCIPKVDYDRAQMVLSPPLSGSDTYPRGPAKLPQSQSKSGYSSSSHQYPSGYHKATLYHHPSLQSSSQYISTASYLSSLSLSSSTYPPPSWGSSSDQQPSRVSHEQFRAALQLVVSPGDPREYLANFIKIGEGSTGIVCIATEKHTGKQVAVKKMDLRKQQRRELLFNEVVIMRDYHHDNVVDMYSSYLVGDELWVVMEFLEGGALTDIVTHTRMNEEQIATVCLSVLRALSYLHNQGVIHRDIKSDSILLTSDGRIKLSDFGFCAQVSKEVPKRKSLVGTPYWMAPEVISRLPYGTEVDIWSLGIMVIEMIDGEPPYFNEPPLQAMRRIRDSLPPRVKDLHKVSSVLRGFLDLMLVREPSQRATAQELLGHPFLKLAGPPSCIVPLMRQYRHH
Description: as §1, §2, §3, §4, §5, §6

PIM1 = molecular target: T13, PIM1 (Homo sapiens, UniProt P11309); conditions: estimated, abridged dose response curve, read-out: Kinase inhibitory activity EC50
T13 construct: purchased Invitrogen, Inc. (SelectScreen platform)
Description: as §1, §2, §3, §4, §5, §6

PRKCB2 (PKC beta II) = molecular target: T14, PRKCB2 (PKC beta II) (Homo sapiens, UniProt P05771); conditions: estimated, abridged dose response curve, read-out: Kinase inhibitory activity EC50
T14 construct: purchased Invitrogen (SelectScreen platform)
Description: as §1, §2, §3, §4, §5, §6

ROCK2 = molecular target: T15, ROCK2 (Homo sapiens, UniProt O75116); conditions: estimated, abridged dose response curve, read-out: Kinase inhibitory activity EC50
T15 construct: purchased Invitrogen (SelectScreen platform)
T15 sequence (O75116 whole entry): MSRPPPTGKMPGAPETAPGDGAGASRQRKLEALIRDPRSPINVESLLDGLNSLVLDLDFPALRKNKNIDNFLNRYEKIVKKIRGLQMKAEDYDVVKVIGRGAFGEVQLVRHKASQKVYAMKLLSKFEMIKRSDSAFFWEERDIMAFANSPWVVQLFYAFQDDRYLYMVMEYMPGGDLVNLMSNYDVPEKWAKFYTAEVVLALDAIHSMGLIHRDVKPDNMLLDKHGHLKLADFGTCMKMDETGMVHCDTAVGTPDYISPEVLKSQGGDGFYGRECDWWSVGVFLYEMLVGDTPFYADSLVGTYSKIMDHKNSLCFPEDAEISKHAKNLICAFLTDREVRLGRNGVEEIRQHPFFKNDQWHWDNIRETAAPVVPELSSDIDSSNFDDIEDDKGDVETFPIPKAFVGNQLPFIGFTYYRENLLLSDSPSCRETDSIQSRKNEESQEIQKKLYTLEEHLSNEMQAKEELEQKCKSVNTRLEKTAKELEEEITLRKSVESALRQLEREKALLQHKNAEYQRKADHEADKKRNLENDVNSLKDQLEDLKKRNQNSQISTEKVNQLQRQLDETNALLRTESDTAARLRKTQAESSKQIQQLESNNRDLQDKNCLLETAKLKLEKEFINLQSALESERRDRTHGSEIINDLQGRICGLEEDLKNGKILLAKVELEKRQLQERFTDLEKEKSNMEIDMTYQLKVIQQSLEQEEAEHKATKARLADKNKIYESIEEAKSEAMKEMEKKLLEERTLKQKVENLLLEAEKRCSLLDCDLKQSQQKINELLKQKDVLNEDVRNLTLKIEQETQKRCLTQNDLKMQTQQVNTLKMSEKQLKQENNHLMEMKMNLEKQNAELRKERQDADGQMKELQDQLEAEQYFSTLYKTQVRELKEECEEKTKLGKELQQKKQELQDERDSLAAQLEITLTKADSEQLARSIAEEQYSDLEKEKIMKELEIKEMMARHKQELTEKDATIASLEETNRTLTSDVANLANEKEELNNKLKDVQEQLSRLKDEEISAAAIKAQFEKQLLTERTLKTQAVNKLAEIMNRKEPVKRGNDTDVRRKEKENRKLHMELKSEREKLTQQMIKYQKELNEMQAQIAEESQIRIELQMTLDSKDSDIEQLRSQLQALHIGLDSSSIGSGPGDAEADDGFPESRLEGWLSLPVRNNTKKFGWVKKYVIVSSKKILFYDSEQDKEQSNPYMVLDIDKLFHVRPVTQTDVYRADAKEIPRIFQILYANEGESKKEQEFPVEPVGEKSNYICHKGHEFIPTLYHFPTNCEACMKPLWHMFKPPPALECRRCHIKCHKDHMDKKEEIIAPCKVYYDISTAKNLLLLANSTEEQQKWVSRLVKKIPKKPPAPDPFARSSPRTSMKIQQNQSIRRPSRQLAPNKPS
Description: as §1, §2, §3, §4, §5, §6

ROS1 (ROS) = molecular target: T16, ROS1 (ROS) (Homo sapiens, UniProt P08922); conditions: estimated, abridged dose response curve, read-out: Kinase inhibitory activity EC50
T16 construct: purchased Invitrogen (SelectScreen)
Description: as §1, §2, §3, §4, §5, §6

SRC N1 = molecular target: T17, SRC N1 (Homo sapiens, UniProt P12931); conditions: estimated, abridged dose response curve, read-out: Kinase inhibitory activity EC50
T17 construct: purchased Invitrogen (SelectScreen)
T17 sequence (P12931 1-542 isoform P12931-2): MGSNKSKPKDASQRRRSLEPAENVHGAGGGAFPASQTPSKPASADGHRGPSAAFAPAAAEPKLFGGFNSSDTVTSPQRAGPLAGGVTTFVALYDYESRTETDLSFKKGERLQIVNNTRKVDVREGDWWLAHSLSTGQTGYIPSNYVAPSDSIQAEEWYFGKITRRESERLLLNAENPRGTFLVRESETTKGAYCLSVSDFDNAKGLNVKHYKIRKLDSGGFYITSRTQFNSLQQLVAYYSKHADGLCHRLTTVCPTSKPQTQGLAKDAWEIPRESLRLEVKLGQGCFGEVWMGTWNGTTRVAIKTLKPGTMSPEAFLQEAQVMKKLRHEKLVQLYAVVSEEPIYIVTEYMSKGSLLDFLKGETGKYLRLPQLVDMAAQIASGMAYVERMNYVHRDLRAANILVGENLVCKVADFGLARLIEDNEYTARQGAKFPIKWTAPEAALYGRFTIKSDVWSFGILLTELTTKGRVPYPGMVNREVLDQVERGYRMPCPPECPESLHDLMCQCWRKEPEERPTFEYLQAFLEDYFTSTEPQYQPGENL
Description: as §1, §2, §3, §4, §5, §6

EC50 (EPHB1; EPHB1, estimated, abridged dose response curve, read-out: Kinase inhibitory activity EC50) [µM]	EC50 (NTRK3 (TRKC); NTRK3 (TRKC), estimated, abridged dose response curve, read-out: Kinase inhibitory activity EC50) [µM]	SMILES	EC50 (ABL1 T315I) [µM]	EC50 (CAMK1D (CaMKI delta)) [µM]	EC50 (CLK2) [µM]	EC50 (CLK3) [µM]	EC50 (CSNK2A1 (CK2 alpha 1)) [µM]	EC50 (FER) [µM]	EC50 (FGFR3) [µM]	EC50 (LCK) [µM]	EC50 (MINK1 (ZC3)) [µM]	EC50 (PAK7 (KIAA1264, PAK5)) [µM]	EC50 (PIM1) [µM]	EC50 (PRKCB2 (PKC beta II)) [µM]	EC50 (ROCK2) [µM]	EC50 (ROS1 (ROS)) [µM]	EC50 (SRC N1) [µM]	EC50 (EPHB1) [µM]	EC50 (NTRK3 (TRKC)) [µM]
> 5	0.24	CN(C)CCCNc1ccc2ncn3c4ccc5[nH]ncc5c4c(=O)c1c23 [Compound (IV)]	> 5	2.78	0.055	> 5	> 5	> 5	3.21	0.345	1.36	> 5	3.42	> 5	0.963	2.66	0.511	–	–
–	–	CCN(CC)CCNc1ccc2ncn3c4ccc(O)cc4c(=O)c1c23 [Symadex, 5-(2-(diethylamino)ethylamino)-8-hydroxy-6H-imidazo[4,5,1-de]acridin-6-one, reference compound]	> 5	4	0.315	> 5	> 5	> 5	> 5	0.824	1.09	> 5	0.959	> 5	> 5	> 5	3.15	> 5	3.72
